Results as given in article PMC10997755, “Discovery of a small-molecule inhibitor that traps Polθ on DNA and synergizes with PARP inhibitors” (Nature Communications, 2024).
Where “and” joins values, the source holds several entries; their conditions need not be identical. Equal entries are not always repeated. Entries after “also recorded” stand apart in the source; their conditions may differ.

What was measured:
Polθ-pol = target: T1, Polθ-pol (Homo sapiens, UniProt O75417); assay: Cy5 fluorescence Polθ-pol DNA synthesis (strand displacement) IC50 assay; format: biochemical; conditions: for IC50: Polθ-pol DNA synthesis, Cy5 fluorescence
T1 construct: purified recombinant human Polθ-pol (comprising amino acid residues 1792–2590); made in house
T1 sequence (O75417 1792-2590): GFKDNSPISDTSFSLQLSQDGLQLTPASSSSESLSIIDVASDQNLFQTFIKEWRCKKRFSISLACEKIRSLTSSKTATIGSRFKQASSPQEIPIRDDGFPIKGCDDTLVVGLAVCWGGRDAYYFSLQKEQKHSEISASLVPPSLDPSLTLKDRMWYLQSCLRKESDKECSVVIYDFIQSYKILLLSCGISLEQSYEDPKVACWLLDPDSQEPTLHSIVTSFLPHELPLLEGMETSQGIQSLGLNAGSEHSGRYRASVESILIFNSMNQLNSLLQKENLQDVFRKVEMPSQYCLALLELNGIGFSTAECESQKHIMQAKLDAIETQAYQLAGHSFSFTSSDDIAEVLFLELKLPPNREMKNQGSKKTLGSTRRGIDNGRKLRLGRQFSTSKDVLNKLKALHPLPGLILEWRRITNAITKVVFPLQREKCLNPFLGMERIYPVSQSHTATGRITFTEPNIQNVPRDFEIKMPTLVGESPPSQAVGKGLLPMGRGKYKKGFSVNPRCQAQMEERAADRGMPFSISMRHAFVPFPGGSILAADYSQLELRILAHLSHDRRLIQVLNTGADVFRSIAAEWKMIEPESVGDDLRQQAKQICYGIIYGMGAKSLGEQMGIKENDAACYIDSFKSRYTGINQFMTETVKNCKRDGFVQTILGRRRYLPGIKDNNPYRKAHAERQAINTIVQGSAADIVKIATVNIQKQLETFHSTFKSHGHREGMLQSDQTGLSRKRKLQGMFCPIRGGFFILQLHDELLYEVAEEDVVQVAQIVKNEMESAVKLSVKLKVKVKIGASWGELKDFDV
In short: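 Recombinant human Polθ-pol (aa 1792–2590, 5 nM) extends 60 nM Cy5/quencher primer-template with 50 uM dNTPs in 25 mM Tris pH 7.8, 10 mM MgCl2, 2.5% DMSO at 37 °C. After 18 min, stopped with 20 mM EDTA; Cy5 fluorescence read, 7-point series in triplicate, inhibition from the mean.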

DLD1 BRCA2 -/- cells = assay: Clonogenic assay; format: cell-based; conditions: for Average (colonies): DLD1 BRCA2 -/-
In short: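 Cells seeded at low density (300–1000 per well, by plate size and genotype), medium changed every 2 days, colonies grown 10–12 days. Fixed in water:ethanol:acetic acid, stained with 0.5% crystal violet, then counted; IC50 from ≥3 independent experiments, mean ± SEM.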

LogP = format: physicochemical; conditions: method not stated
DLD1 Parental cells = assay: Clonogenic assay; format: cell-based; conditions: DLD1 Parental
Protocol: Cells were plated on six or twelve or twenty-four well plates. In six well plate, 1000 cells/ well of BRCA2 -/-, BRCA1 -/-, PALB2 mut and 500 cells/ well of wildtype pair was plated; In twelve well plate, 600 cells/ well of BRCA2 -/-, BRCA1 -/-, PALB2 mut and 400 cells/ well of wildtype pair was plated; In twenty-four well plate, 500 cells/ well of BRCA2 -/-, BRCA1 -/-, PALB2 mut and 300 cells/ well of wildtype pair was plated. For MEFs, 300 cells per well in six-well plate were seeded. The medium was replaced every 2 days until the colonies were ready for staining in 10–12 days. For staining: Medium was removed from plates, and cells were rinsed with PBS. Fixation was carried out with—Water: Ethanol: Acetic acid (5:4:1) for 30 min followed by staining of colonies with 0.5% crystal violet in Water: Ethanol (3:2) for 2 h at room temperature. The plates were rinsed with water and left for drying overnight at room temperature. Colonies were then counted and IC50 was calculated using results from 3 or more independent experiments. Response curves are shown as mean colony formation +/- S.E.M.

[1] = 10 μM compound, 5 nM PolQ, 60 nM DNA, 18 min

SMILES: CN(C(=O)Oc1ccc(C(F)(F)F)cc1C(F)(F)F)c1ccc(F)cc1 [MC160385]
- improved potency relative to hit MC28003 (Polθ-pol): ~ 18 fold
- raw signal, Positive Control, Average (Polθ-pol; [1]): 21.00
- raw signal, Positive Control, Trial 1-3 (Polθ-pol; [1]): 20.96 and 21.46 and 20.58
- Cy5 fluorescence, Average of Trial 1-3 (Polθ-pol; MC160385 0.0014 μM, 5 nM PolQ): 363.79
- activity at 0.0041 µM (Polθ-pol; MC160385 0.0041 μM): 77.8%
- inhibition at 0.0041 µM (Polθ-pol; MC160385 0.0041 μM): 22.2%
- Cy5 fluorescence, Average of Trial 1-3 (Polθ-pol; MC160385 0.0041 μM, 5 nM PolQ): 309.29
- activity at 0.0123 µM (Polθ-pol; MC160385 0.0123 μM): 38.7%
- inhibition at 0.0123 µM (Polθ-pol; MC160385 0.0123 μM): 61.3%
- Cy5 fluorescence, Average of Trial 1-3 (Polθ-pol; MC160385 0.0123 μM, 5 nM PolQ): 203.69
- activity at 0.037 µM (Polθ-pol; MC160385 0.0370 μM): 3.23%
- inhibition at 0.037 µM (Polθ-pol; MC160385 0.0370 μM): 96.8%
- Cy5 fluorescence, Average of Trial 1-3 (Polθ-pol; MC160385 0.0370 μM, 5 nM PolQ): 109.39
- activity at 0.1111 µM (Polθ-pol; MC160385 0.1111 μM): -2.07%
- inhibition at 0.1111 µM (Polθ-pol; MC160385 0.1111 μM): 102%
- Cy5 fluorescence, Average of Trial 1-3 (Polθ-pol; MC160385 0.1111 μM, 5 nM PolQ): 94.78
- activity at 0.3333 µM (Polθ-pol; MC160385 0.3333 μM): -2.9%
- inhibition at 0.3333 µM (Polθ-pol; MC160385 0.3333 μM): 103%
- Cy5 fluorescence, Average of Trial 1-3 (Polθ-pol; MC160385 0.3333 μM, 5 nM PolQ): 92.26
- activity at 1 µM (Polθ-pol; MC160385 1.0000 μM): -1.58%
- inhibition at 1 µM (Polθ-pol; MC160385 1.0000 μM): 102%
- Cy5 fluorescence, Average of Trial 1-3 (Polθ-pol; MC160385 1.0000 μM, 5 nM PolQ): 95.83
- Positive Control fluorescence, Average (Polθ-pol; MC160385 2 μM, sheet Fig. 1 b): 100.15
- Positive Control fluorescence, Average (Polθ-pol; MC160385 10 μM, 5 nM PolQ, 18 min, sheet Fig. 1 g): 33.58
- IC50 (Polθ-pol): 9 nM
- selective killing / synthetic lethality in BRCA2-null DLD1 cells (DLD1 BRCA2 -/- cells; colony survival, versus BRCA2-WT): failed to show selective killing; also recorded: failure
- logP (LogP): ~5.3

SMILES: Nc1ccc(C#CCN(C(=O)Cc2ncc(C(F)(F)F)cc2C(F)(F)F)c2ccc(F)cc2)nn1 [RP6685, reference compound]
- IC50 (Polθ-pol): 6.9 nM
- Average (colonies) (DLD1 BRCA2 -/- cells; 0.375 uM, block 1 of sheet): 44.6667
- Average (colonies) (DLD1 BRCA2 -/- cells; 0.375 uM, block 2 of sheet): 14.6667
- Average (colonies) (DLD1 BRCA2 -/- cells; 0.375 uM, block 3 of sheet): 52
- Average (colonies) (DLD1 BRCA2 -/- cells; 0.375 uM, block 4 of sheet): 52
- Average (colonies) (DLD1 BRCA2 -/- cells; 0.75 uM, block 1 of sheet): 42.3333
- Average (colonies) (DLD1 BRCA2 -/- cells; 0.75 uM, block 2 of sheet): 10.3333
- Average (colonies) (DLD1 BRCA2 -/- cells; 0.75 uM, block 3 of sheet): 48.3333
- Average (colonies) (DLD1 BRCA2 -/- cells; 0.75 uM, block 4 of sheet): 49.6667
- Average (colonies) (DLD1 BRCA2 -/- cells; 1.5 uM, block 1 of sheet): 34
- Average (colonies) (DLD1 BRCA2 -/- cells; 1.5 uM, block 2 of sheet): 7.333
- Average (colonies) (DLD1 BRCA2 -/- cells; 1.5 uM, block 3 of sheet): 43.6667
- Average (colonies) (DLD1 BRCA2 -/- cells; 1.5 uM, block 4 of sheet): 41.6667
- Average (colonies) (DLD1 BRCA2 -/- cells; 3 uM, block 1 of sheet): 34.3333
- Average (colonies) (DLD1 BRCA2 -/- cells; 3 uM, block 2 of sheet): 4
- Average (colonies) (DLD1 BRCA2 -/- cells; 3 uM, block 3 of sheet): 33.6667
- Average (colonies) (DLD1 BRCA2 -/- cells; 3 uM, block 4 of sheet): 36.3333
- Average (colonies) (DLD1 BRCA2 -/- cells; 6 uM, block 1 of sheet): 30
- Average (colonies) (DLD1 BRCA2 -/- cells; 6 uM, block 2 of sheet): 4
- Average (colonies) (DLD1 BRCA2 -/- cells; 6 uM, block 3 of sheet): 31
- Average (colonies) (DLD1 BRCA2 -/- cells; 6 uM, block 4 of sheet): 28
- Average (colonies) (DLD1 BRCA2 -/- cells; 12 uM, block 1 of sheet): 25
- Average (colonies) (DLD1 BRCA2 -/- cells; 12 uM, block 2 of sheet): 2
- Average (colonies) (DLD1 BRCA2 -/- cells; 12 uM, block 3 of sheet): 21.3333
- Average (colonies) (DLD1 BRCA2 -/- cells; 12 uM, block 4 of sheet): 9.333
- IC50 (DLD1 BRCA2 -/- cells; DLD1 cells, label beside BRCA2-null curve, read-out: IC50 clonogenic survival): ~4500 nM
- potency in BRCA2-null cells compared with RTx-161 (DLD1 BRCA2 -/- cells; clonogenic survival): slightly reduced potency
- Average (colonies) (DLD1 Parental cells; 0.375 uM, block 1 of sheet): 72.6667
- Average (colonies) (DLD1 Parental cells; 0.375 uM, block 2 of sheet): 75
- Average (colonies) (DLD1 Parental cells; 0.375 uM, block 3 of sheet): 87
- Average (colonies) (DLD1 Parental cells; 0.375 uM, block 4 of sheet): 63.6667
- Average (colonies) (DLD1 Parental cells; 0.75 uM, block 1 of sheet): 55.3333
- Average (colonies) (DLD1 Parental cells; 0.75 uM, block 2 of sheet): 76
- Average (colonies) (DLD1 Parental cells; 0.75 uM, block 3 of sheet): 85.6667
- Average (colonies) (DLD1 Parental cells; 0.75 uM, block 4 of sheet): 65.6667
- Average (colonies) (DLD1 Parental cells; 1.5 uM, block 1 of sheet): 59.3333
- Average (colonies) (DLD1 Parental cells; 1.5 uM, block 2 of sheet): 75
- Average (colonies) (DLD1 Parental cells; 1.5 uM, block 3 of sheet): 80
- Average (colonies) (DLD1 Parental cells; 1.5 uM, block 4 of sheet): 63.3333
- Average (colonies) (DLD1 Parental cells; 3 uM, block 1 of sheet): 73
- Average (colonies) (DLD1 Parental cells; 3 uM, block 2 of sheet): 75.6667
- Average (colonies) (DLD1 Parental cells; 3 uM, block 3 of sheet): 85.6667
- Average (colonies) (DLD1 Parental cells; 3 uM, block 4 of sheet): 65.6667
- Average (colonies) (DLD1 Parental cells; 6 uM, block 1 of sheet): 74
- Average (colonies) (DLD1 Parental cells; 6 uM, block 2 of sheet): 74.3333
- Average (colonies) (DLD1 Parental cells; 6 uM, block 3 of sheet): 84
- Average (colonies) (DLD1 Parental cells; 6 uM, block 4 of sheet): 64
- Average (colonies) (DLD1 Parental cells; 12 uM, block 1 of sheet): 60.6667
- Average (colonies) (DLD1 Parental cells; 12 uM, block 2 of sheet): 75
- Average (colonies) (DLD1 Parental cells; 12 uM, block 3 of sheet): 81
- Average (colonies) (DLD1 Parental cells; 12 uM, block 4 of sheet): 64.3333
